Laboratory results from the NIST ThermoML archive (doi:10.1016/j.jct.2015.08.028).
Numbers after ± are expanded uncertainties.

Tests used:
[1] = Crystal; DTA
[2] = Molar enthalpy of transition or fusion; conditions: Crystal; DSC

CC1=C(O)C(=O)C(C)O1 (configuration not stated) [4-hydroxy-2,5-dimethyl-3(2H)-furanone]
Normal melting temperature [1]: 80.8 ± 1.6 °C
Molar enthalpy of transition or fusion [2]: 4.61 ± 0.12 kcal/mol
